The results in this text go back to patent US20200347136A1, “CONSTRAINED CYCLIC PEPTIDES AS INHIBITORS OF THE CD2:CD58 PROTEIN-PROTEIN INTERACTION FOR TREATMENT OF DISEASES AND AUTOIMMUNE DISORDERS” (Board of Supervisors for the University of Louisiana System, priority 2019, published 2020).

One assay deals with BT-474 cells. Conditions: for IC50: read-out: IC50 BT-474 (HER2+), antiproliferative activity. Here is the method: (§1) Antiproliferative activity of grafted cyclic peptides. Antiproliferative activity of the designed grafted peptides was evaluated in different HER2-overexpressing cancer cell lines as well as HER2 negative cancer cell lines.
(§2) Table 1. […] Single letter amino acid code was used for peptide sequence. Lower case letters refer to D amino acids and capital letters refer to L amino acids. Chirality of Anapa was indicated with R and S configuration in italics. Antiproliferative activity of peptides in cancer cell lines are given as IC50 in μM. Disulfide bonds between the cysteines are underlined.

A further assay deals with MCF-7 cells. The following applies: read-out: IC50 MCF-7 (HER2−); antiproliferative activity. Here is the method:
as §1, §2

A further assay deals with Calu-3 xenograft tumors. The experiment in a line: Calu-3 xenograft model of lung cancer in nude mice. The format is in vivo. Conditions: Calu-3 xenograft; SFTI-G5 8 mg/kg intratumoral thrice a week; antibodies 12 then 6 mg/kg once a week. The protocol:
5×10^6 Calu-3 cells suspended in serum-free medium were subcutaneously inoculated in left flank region of mice to induce lung cancer (Foxn1-nude). Peptide (8 mg/kg) was administered via intratumoral injection three times a week after 10 days, Pertuzumab was injected with a loading dose of 12 mg/kg and then 6 mg/kg as maintenance dose intraperitonially once a week, Trastuzumab and pertuzumab combination was injected at a loading dose of 12 mg/kg and then 6 mg/kg as maintenance dose once a week. […] For comparison, pertuzumab (up triangle, blue) and trastuzumab and pertuzumab combination (down triangle, red) also shown (with standard errors for n=6). […] C) PPI inhibition assessed by PLA on tumor tissue sample. […] Tumor sections were homogenized, and protein was extracted and subjected to Western blot. […] (** p<0.01). Mean±SEM.
HER2 dimerization inhibitors such as pertuzumab and trastuzumab and pertuzumab combinations were also administered as control groups (FIG. 11A). […] During the course of the experiment, the tumor size in the control xenograft group without any treatment continued to increase, reaching a diameter of ˜9 mm in 28 days (FIG. 11B).
To evaluate the phosphorylation of HER2 protein, Western blot analysis was performed on frozen tumor samples.

Assay [1] deals with CD2:CD58. The experiment in a line: Cell adhesion inhibition IC50 (µM) | T cell-OVCAR-3. Here is the method:
(§3) Table printed on a drawing sheet, Fig. 5
Head of the field: Cell adhesion inhibition IC50 (µM) | T cell-OVCAR-3
(§4) Table of stable peptides designed based on sunflower trypsin inhibitor (SFTI) and their cell adhesion inhibition activities in a model system. OVCAR-3 and HFLS-RA cells express CD58. Jurkat T cells express CD2 protein. Inhibition of adhesion between Jurkat and OVCAR-3/HFLS-RA cells was evaluated. Cell adhesion inhibition is represented as IC50 value
(§5) First copying reader's note: In the SFTI sequences the stretch from the first C to the second C is underlined on the sheet; the ± error stands inside the IC50 cells.
(§6) Where the first naming reader finds the target: description_of_the_figure: OVCAR-3 and HFLS-RA cells express CD58. Jurkat T cells express CD2 protein. Inhibition of adhesion between Jurkat and OVCAR-3/HFLS-RA cells was evaluated.

The test system of assay [2] is CD2:CD58. The experiment in a line: Cell adhesion inhibition IC50 (µM) | T cell-HFLS-RA. The protocol: as §3
Head of the field: Cell adhesion inhibition IC50 (µM) | T cell-HFLS-RA
as §4, §5, §6

Another assay deals with T1, CD2:CD58 interaction (Homo sapiens, UniProt P19256).
T1 construct: Peptides were incubated with adherent cells that expressed CD58; endogenous in cells; host or cells: Jurkat T cells with OVCAR-3 or HFLS-RA cells
T1 sequence (P19256 29-250): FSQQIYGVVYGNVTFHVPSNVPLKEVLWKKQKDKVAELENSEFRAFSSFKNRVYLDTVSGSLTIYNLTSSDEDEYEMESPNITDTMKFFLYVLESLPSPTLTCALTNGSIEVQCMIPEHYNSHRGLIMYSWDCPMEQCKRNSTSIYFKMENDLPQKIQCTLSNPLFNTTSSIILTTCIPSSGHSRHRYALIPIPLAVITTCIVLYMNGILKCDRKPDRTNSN
Put plainly: cell adhesion inhibition between T cells (CD2) and epithelial cells (CD58), model systems. The format is cell-based.

The target of assay [3] is T2, CD2:CD58 interaction (Jurkat T cells / OVCAR-3 cells) (Homo sapiens, UniProt P19256).
T2 construct: CD2+ Jurkat T cells and CD58+ OVCAR-3 cells; endogenous in cells; host or cells: OVCAR-3 (CD58) and Jurkat (CD2)
T2 sequence (P19256 29-250): T1 sequence (P19256 29-250)
The experiment in a line: cell adhesion inhibition, Jurkat / OVCAR-3 cells. The format is cell-based.
Protocol: (§7) The ability of peptides to inhibit the CD2:CD58 protein-protein interaction was studied by evaluating the adhesion interaction between cells using model systems. […] The model systems we used included Jurkat and ovarian cancer (OVACR-3) cells and Jurkat and human fibroblast-like synoviocyte-rheumatoid arthritis (HFLS-RA) cells. Since OVCAR-3 cells and HFLS-RA cells express CD58, adhesion interactions between CD2 and CD58 can be studied using these model systems. Peptides were incubated with adherent cells that expressed CD58, and Jurkat cells were added to evaluate the adhesion. […] A broad range of concentrations (0.0005 to 200 μM) was used in the first screen and based on the inhibitory activity of the peptides in that concentration range, data points for a dose-response study were chosen. The concentration-response curves for the various peptides were obtained in the range of 0.0005 to 10 μM.
(§8) Cell adhesion was also evaluated in a well-established E-rosetting assay. […] To evaluate the cell adhesion inhibitory activity of peptides from cells associated with autoimmune disease, we used HFLS-RA cells derived from RA patients.

For assay [4], the target named is T3, CD2:CD58 interaction (Jurkat T cells / HFLS-RA cells) (Homo sapiens, UniProt P19256).
T3 construct: we used HFLS-RA cells derived from RA patients; endogenous in cells; host or cells: HFLS-RA (CD58) and Jurkat (CD2)
T3 sequence (P19256 29-250): T1 sequence (P19256 29-250)
The experiment in a line: cell adhesion inhibition, Jurkat / HFLS-RA cells. The format is cell-based.
Protocol: as §7, §8

The test system of the next assay is Calu-3 cells. The following applies: read-out: IC50 Calu-3 (HER2+); antiproliferative activity. The protocol:
as §1, §2

A further assay relates to A549 cells. The following applies: read-out: IC50 A549 (HER2+); antiproliferative activity. The protocol:
as §1, §2

Numbered stars: 1 amine (or outer) side, 2 acyl side, 3 side chain; on linkers, the order of the positions; unused ones are H or OH. Bridge positions count the residues as written; N and C are the ends. Square brackets hold non-standard residues; d marks the D form. Peptide text beside a SMILES is read from it. βAla(3R-(1-naphthyl)) = O=C(C[C@@H](N[*:1])c1cccc2ccccc12)[*:2]; βAla(3S-(1-naphthyl)) = O=C(C[C@H](N[*:1])c1cccc2ccccc12)[*:2]; X1 = O=C(CCc1cccc2c1oc1c(CCN[*:1])cccc12)[*:2]

`CC[C@H](C)[C@@H]1NC(=O)[C@H](CCCNC(=N)N)NC(=O)C[C@H](c2cccc3ccccc23)NC(=O)[C@@H]2CSSC[C@H](NC(=O)C[C@H](c3cccc4ccccc34)NC(=O)[C@H](CCCNC(=N)N)NC(=O)[C@@H]3CCCN3C(=O)[C@@H]3CCCN3C1=O)C(=O)N[C@@H](Cc1ccccc1)C(=O)N1CCC[C@H]1C(=O)N[C@@H](CC(=O)O)C(=O)N[C@@H](CC(=O)O)C(=O)N[C@@H](Cc1ccccc1)C(=O)N2` [SFTI-G6, Cyclo(C(R-X)RIPPR(R-X)CFPDDF)]: the “change of antiproliferative activity on altering Anapa chirality (S to R)” value with BT-474 cells (SFTI-G6 versus SFTI-G5) is “tenfold decrease”. The IC50 in the assay on BT-474 cells is 2.94 ± 1.06 µM; in the assay with MCF-7 cells, greater than 50 µM.
“pertuzumab: antibody known to bind HER2 ECD domain II and inhibit dimerization of EGFRs [reference compound]”: in the assay on Calu-3 xenograft tumors, the tumor growth result is listed as “significantly reduced tumor growth progression”.
`N=C(N)NCCC[C@@H]1NC(=O)[C@H]2CCCN2C(=O)[C@@H]2CCCN2C(=O)[C@H](CCCNC(=N)N)NC(=O)C[C@H](c2cccc3ccccc23)NC(=O)[C@@H]2CSSC[C@H](NC(=O)C[C@H](c3cccc4ccccc34)NC1=O)C(=O)N[C@@H](Cc1ccccc1)C(=O)N[C@@H](Cc1ccccc1)C(=O)N2` [SFTI-G2, Cyclo(C(R-X)RPpR(R-X)CFF)] (cyclo(C[βAla(3R-(1-naphthyl))]RP[dP]R[βAla(3R-(1-naphthyl))]CFF); disulfide 1-8): the IC50 in the assay with BT-474 cells was 5.23 ± 1.38 µM; with MCF-7 cells it was greater than 50 µM.
The corresponding values for `CC[C@H](C)[C@@H]1NC(=O)[C@H](CO)NC(=O)[C@H](CC(=O)O)NC(=O)[C@H](Cc2ccccc2)NC(=O)[C@@H]2CSSC[C@H](NC(=O)[C@H](Cc3ccccc3)NC(=O)[C@H](CC(=O)O)NC1=O)C(=O)N[C@H](c1cccc3ccccc13)CC(=O)N[C@@H](CCCNC(=N)N)C(=O)N[C@@H](CC(=O)O)C(=O)N[C@@H](CCCNC(=N)N)C(=O)N[C@H](c1cccc3ccccc13)CC(=O)N2` [SFTI-G1, Cyclo(C(S-X)RDR(S-X)CFDSIDF)] (cyclo(C[βAla(3S-(1-naphthyl))]RDR[βAla(3S-(1-naphthyl))]CFDSIDF); disulfide 1-7) are 4.16 ± 0.179 µM and greater than 50 µM.
Regarding `C[C@@H]1NC(=O)[C@H](CCCCN)NC(=O)[C@@H]2CSSC[C@H](NC(=O)[C@H](CO)NC(=O)[C@@H]3CCCN3C(=O)[C@@H]3CCCN3C(=O)[C@H](C)NC(=O)[C@H](CO)NC1=O)C(=O)N[C@@H](Cc1ccc(O)cc1)C(=O)N[C@@H](CC(=O)O)C(=O)NCC(=O)N[C@@H](CC(=O)O)C(=O)N[C@@H](CC(=O)O)C(=O)N2` [SFTI-a] (cyclo(APPSCYDGDDCKAS); disulfide 5-11), the IC50 with CD2:CD58 [1] was 0.043 ± 0.025 µM.
“Cyclo(CTKSIPPICFPDGR) (cyclic) [SFTI-wt (control)]”: the IC50 with CD2:CD58 [1] and with CD2:CD58 [2] was greater than 50 µM in each case.
Take `C[C@@H]1NC(=O)[C@@H]2CSSC[C@H](NC(=O)[C@H](CC(=O)O)NC(=O)[C@H](CC(=O)O)NC(=O)CNC(=O)[C@H](CC(=O)O)NC(=O)[C@H](Cc3ccc(O)cc3)NC1=O)C(=O)N[C@@H](CCCCN)C(=O)N[C@@H](CO)C(=O)N[C@@H](C)C(=O)N1CCC[C@H]1C(=O)N1CCC[C@H]1C(=O)N[C@@H](CO)C(=O)N2` [SFTI-a1] (cyclo(APPSCAYDGDDCKS); disulfide 5-12): the values for the IC50 against CD2:CD58 interaction and in the assay with CD2:CD58 [2] were 0.022 µM and 0.0388 ± 0.0102 µM, respectively.
`N=C(N)NCCC[C@@H]1NC(=O)[C@@H]2CCCN2C(=O)[C@@H]2CCCN2C(=O)[C@H](CCCNC(=N)N)NC(=O)C[C@H](c2cccc3ccccc23)NC(=O)[C@@H]2CSSC[C@H](NC(=O)C[C@H](c3cccc4ccccc34)NC1=O)C(=O)N[C@@H](Cc1ccccc1)C(=O)N2` [SFTI-G3, Cyclo(C(R-X)RPPR(R-X)CF)] (cyclo(C[βAla(3R-(1-naphthyl))]RPPR[βAla(3R-(1-naphthyl))]CF); disulfide 1-8): the IC50 in the assay on BT-474 cells is 3.65 ± 0.41 µM; with MCF-7 cells, greater than 50 µM.
The corresponding values for `CC[C@H](C)[C@@H]1NC(=O)[C@H](CO)NC(=O)[C@H](CC(=O)O)NC(=O)[C@H](Cc2ccccc2)NC(=O)[C@@H]2CSSC[C@H](NC(=O)[C@H](Cc3ccccc3)NC(=O)[C@H](CC(=O)O)NC(=O)[C@@H]3CCCN3C(=O)[C@@H]3CCCN3C1=O)C(=O)N[C@H](c1cccc3ccccc13)CC(=O)N[C@@H](CCCNC(=N)N)C(=O)N1CCC[C@H]1C(=O)NCC(=O)N[C@@H](CCCNC(=N)N)C(=O)N[C@H](c1cccc3ccccc13)CC(=O)N2` [SFTI-G4] (cyclo(C[βAla(3S-(1-naphthyl))]RPGR[βAla(3S-(1-naphthyl))]CFDSIPPDF); disulfide 1-8) are 17.2 ± 1.03 µM and greater than 30 µM.
As to `N=C(N)NCCC[C@@H]1NC(=O)[C@H]2CCCN2C(=O)[C@@H]2CCCN2C(=O)[C@H](CCCNC(=N)N)NC(=O)C[C@H](c2cccc3ccccc23)NC(=O)[C@H](Cc2ccccc2)NC(=O)[C@H](CC(=O)O)NC(=O)[C@H](CC(=O)O)NC(=O)[C@H](Cc2ccccc2)NC(=O)C[C@H](c2cccc3ccccc23)NC1=O` [Compound 18, Cyclo(PpR(R-X)FDDF(R-X)R), reference compound] (cyclo(P[dP]R[βAla(3R-(1-naphthyl))]FDDF[βAla(3R-(1-naphthyl))]R)), the half-inhibitory concentration (IC50) with MCF-7 cells is greater than 50 µM.
Regarding `C[C@@H]1NC(=O)[C@@H]2CSSC[C@H](NC(=O)[C@H](CC(=O)O)NC(=O)[C@H](CC(=O)O)NC(=O)CNC(=O)[C@H](CC(=O)O)NC(=O)[C@H](Cc3ccc(O)cc3)NC1=O)C(=O)N[C@@H](CCCCN)C(=O)N[C@@H](CO)C(=O)N[C@@H](C)C(=O)NCCc1cccc3c1Oc1c(cccc1-3)CCC(=O)N[C@@H](CO)C(=O)N2` [SFTI-DBF] (cyclo(AYDGDDCKSA[X1]SC); disulfide 7-13), the IC50 in assay [3] amounted to 0.00061 µM; in assay [4] it was 0.003 µM.
With `CC[C@H](C)[C@@H]1NC(=O)[C@H](C)NC(=O)C[C@@H](c2cccc3ccccc23)NC(=O)[C@@H]2CSSC[C@H](NC(=O)C[C@@H](c3cccc4ccccc34)NC(=O)[C@H](C)NC(=O)[C@@H]3CCCN3C(=O)[C@@H]3CCCN3C1=O)C(=O)N[C@@H](C)C(=O)N1CCC[C@H]1C(=O)N[C@@H](CC(=O)O)C(=O)N[C@@H](C)C(=O)N[C@@H](Cc1ccccc1)C(=O)N2` [Control-G, Cyclo(C(S-X)AIPPA(S-X)CAPDAF), reference compound] (cyclo(AFC[βAla(3S-(1-naphthyl))]AIPPA[βAla(3S-(1-naphthyl))]CAPD); disulfide 3-11), the IC50 in the assay on Calu-3 cells, with A549 cells, in the assay with BT-474 cells and in the assay on MCF-7 cells was greater than 50 µM each time.

The IC50 is the midpoint of a concentration-inhibition curve.
